In patent US10137162B1, “Gastroprotective extracts of Sonchus oleraceus L” (KING SAUD UNIVERSITY, priority 2018, dated 2018):

Assays:
[1] = tested on: ulcerative colitis induced by acetic acid; assay: acetic acid-induced ulcerative colitis; format: in vivo, Male Wistar rats; details: 0.1 mg/kg oral once daily, 5 days
Procedure: All medications were administered orally, once daily for 5 consecutive days and the first dose was administered about 2 h after ulcerative colitis induction by about 2 mL (4%, v/v) acetic acid in saline. Ulcer indices (mm) were calculated as the sum of the total length of long ulcers and petechial lesions in each group of rats divided by its number. All values were expressed as mean+S.D. Comparisons between means were carried out using a one-way ANOVA test followed by the Tukey HSD test using SPSS, version 14 (SPSS, Chicago, Ill.). Differences at p<0.05 were considered statistically significant.

[2] = tested on: absolute ethanol-induced ulcer; assay: absolute ethanol-induced ulcer model (gastroprotective activity); format: in vivo, Male Wistar rats; details: 20 mg/kg oral
Procedure: The absolute ethanol-induced ulcer model was used for evaluation of gastroprotective activity. Groups of 6 Male Wistar rats were used. Treated groups received either total alcohol extracts (SA or SR) at doses of about 250 mg/kg or about 500 mg/kg. […] A treatment group received Omeprazole (about 20 mg/kg) and a control group received water (about 5 mL/kg). All treatments were administered orally to all groups. […] After one hour all rats were sacrificed, the stomachs were rapidly removed, opened along their greater curvature, and gently rinsed under running tap water. The number and severity of ulcers were visually counted and the ulcer index was calculated. Ulcer indices (mm) were calculated as the sum of the total length of long ulcers and petechial lesions in each group of rats divided by its number. Percent protection was determined according to the following formula: [formula] All values were expressed as mean+S.D. Comparisons between means were carried out using a one-way ANOVA test followed by the Tukey HSD test using SPSS, version 14 (SPSS, Chicago, Ill.). Differences at p<0.05 were considered statistically significant.

C[C@@H]1C[C@H]2[C@@H]3CCC4=CC(=O)C=C[C@]4(C)[C@@]3(F)[C@@H](O)C[C@]2(C)[C@@]1(O)C(=O)CO [Dexamethasone, dexamethasone]
% protection [1]: 66.36%

COc1ccc2[nH]c([S+]([O-])Cc3ncc(C)c(OC)c3C)nc2c1 (stereo not drawn) [Omeprazole]
Score ([2]; 30 min before ethanol): 2.50
% protection ([2]; ethanol-induced ulcer): 45.83%
